Source: patent US11318137B2, “Quinazoline compounds as modulators of Ras signaling” (VANDERBILT UNIVERSITY, priority 2017, dated 2022)

Key:
[1] = system: H727 lung cancer cell lines, which contain a G12V K-Ras mutation; test: Inhibition of cancer cell proliferation (CellTiter-Glo, 3 days); format: cell-based; details: Homo sapiens, NCI-H727, 72 h, H727 cells, 3 days at 37° C., normalized to DMSO control, read-out: Cell proliferation activity (H727 cancer cell line proliferation IC50)
Protocol: C. Inhibition of Cancer Cell Proliferation
Compounds of the present invention were measured for their ability to kill H727 lung cancer cell lines, which contain a G12V K-Ras mutation. Cell proliferation experiments were conducted in 96-well plates. Cells were plated at 1000 cells/well, incubated overnight, followed by treatment with a dose range of compound for 3 days at 37° C. Cell proliferation was assessed using a CellTiter-Glo assay (Promega) according to the manufacturer's protocol. Data were normalized to DMSO control. IC50 values were determined using a four-parameter dose-response (variable slope) equation. These assays are performed in a manner analogous to the assay disclosed in: Burns, M. C.; Sun, Q.; Daniels, R. N.; Camper, D. V.; Kennedy, J. P.; Phan, J.; Olejniczak, E. O.; Lee, T.; Waterson, A. G.; Rossanese, O. W.; Fesik, S. W. “Approach for targeting Ras with small molecules that activate SOS-mediated nucleotide exchange” Proc. Natl. Acad. Sci. 2014; 11(9): 3401-3406. PMCID: PMC3948241.

[2] = target: T1, SOS-mediated nucleotide exchange on Ras (Homo sapiens, UniProt Q07889); test: SOS-mediated nucleotide exchange on Ras (BODIPY-GDP fluorescence); format: biochemical; details: Ras loaded with BODIPY-GDP, GTP and SOS added; EC50 from derived exchange rates
T1 sequence (Q07889 1-1333): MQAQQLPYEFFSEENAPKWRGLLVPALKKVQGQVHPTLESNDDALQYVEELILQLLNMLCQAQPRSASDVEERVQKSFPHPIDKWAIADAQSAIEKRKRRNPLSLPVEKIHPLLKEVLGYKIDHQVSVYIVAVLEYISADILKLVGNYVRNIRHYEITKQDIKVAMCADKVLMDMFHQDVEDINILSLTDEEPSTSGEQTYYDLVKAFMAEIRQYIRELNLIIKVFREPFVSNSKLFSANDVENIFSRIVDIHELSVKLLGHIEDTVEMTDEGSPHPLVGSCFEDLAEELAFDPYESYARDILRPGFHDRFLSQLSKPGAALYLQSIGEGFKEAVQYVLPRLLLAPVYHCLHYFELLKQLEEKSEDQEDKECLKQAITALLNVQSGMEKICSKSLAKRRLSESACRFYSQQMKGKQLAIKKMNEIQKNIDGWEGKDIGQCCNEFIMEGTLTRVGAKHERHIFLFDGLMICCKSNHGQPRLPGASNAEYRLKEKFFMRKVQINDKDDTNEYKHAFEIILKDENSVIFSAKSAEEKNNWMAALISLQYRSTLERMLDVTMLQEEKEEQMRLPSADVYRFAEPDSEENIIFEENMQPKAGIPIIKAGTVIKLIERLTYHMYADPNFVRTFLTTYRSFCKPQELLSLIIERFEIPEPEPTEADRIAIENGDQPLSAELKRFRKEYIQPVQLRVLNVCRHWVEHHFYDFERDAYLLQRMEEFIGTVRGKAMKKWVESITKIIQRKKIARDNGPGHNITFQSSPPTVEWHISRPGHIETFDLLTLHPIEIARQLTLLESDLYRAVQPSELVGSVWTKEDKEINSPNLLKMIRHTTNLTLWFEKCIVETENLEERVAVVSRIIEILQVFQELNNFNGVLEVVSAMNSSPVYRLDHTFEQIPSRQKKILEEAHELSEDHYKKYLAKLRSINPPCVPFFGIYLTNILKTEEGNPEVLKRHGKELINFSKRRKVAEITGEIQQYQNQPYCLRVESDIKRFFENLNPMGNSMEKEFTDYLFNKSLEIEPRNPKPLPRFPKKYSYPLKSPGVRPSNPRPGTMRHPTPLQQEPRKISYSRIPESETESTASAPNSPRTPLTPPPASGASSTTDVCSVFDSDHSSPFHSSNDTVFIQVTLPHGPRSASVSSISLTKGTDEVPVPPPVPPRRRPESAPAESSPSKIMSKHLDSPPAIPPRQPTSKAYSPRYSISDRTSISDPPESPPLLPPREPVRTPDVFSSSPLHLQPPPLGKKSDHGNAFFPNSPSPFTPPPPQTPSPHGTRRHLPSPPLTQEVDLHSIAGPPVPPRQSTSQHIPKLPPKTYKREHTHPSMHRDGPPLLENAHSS
How it was run: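 Compound, then GTP and SOS, were added to buffered Ras preloaded with BODIPY-GDP, and the fluorescence change from labeled GDP being exchanged for GTP was followed over time. Rates came from single-exponential fits, and EC50 from a four-parameter fit of mean rate against compound concentration.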

[3] = target: T2, Son of Sevenless (SOS) (Homo sapiens, UniProt Q07889); test: Binding to SOS, fluorescence polarization anisotropy (FPA) displacement of FITC-conjugated probe; details: binding affinity calculated from IC50 of FITC-probe displacement, read-out: Binding affinities (binding affinity to SOS)
T2 sequence (Q07889 564-1049 limits assumed): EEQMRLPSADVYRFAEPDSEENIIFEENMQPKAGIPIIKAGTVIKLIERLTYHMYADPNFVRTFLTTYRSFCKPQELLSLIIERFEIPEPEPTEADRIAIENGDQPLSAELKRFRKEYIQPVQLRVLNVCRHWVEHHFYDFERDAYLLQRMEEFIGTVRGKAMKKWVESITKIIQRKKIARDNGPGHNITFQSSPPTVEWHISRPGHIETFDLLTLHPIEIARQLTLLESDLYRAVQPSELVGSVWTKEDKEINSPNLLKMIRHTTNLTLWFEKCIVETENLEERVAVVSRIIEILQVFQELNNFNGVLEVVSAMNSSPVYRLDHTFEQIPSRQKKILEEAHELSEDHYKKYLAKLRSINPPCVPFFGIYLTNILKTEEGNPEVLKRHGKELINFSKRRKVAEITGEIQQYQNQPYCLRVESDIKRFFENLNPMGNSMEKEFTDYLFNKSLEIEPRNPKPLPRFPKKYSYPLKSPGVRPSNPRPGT
How it was run: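 FITC-labelled probe incubated with SOS in buffer; displacement by test compound across a dose range read as fluorescence anisotropy change. IC50 from four-parameter variable-slope fit, binding affinity calculated from IC50.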

SMILES | IC50 [1] | EC50 [2] | Ki [3]
C[C@@H](Nc1nc(Cc2cc(F)cc(F)c2)nc2ccccc12)C1CC1 [Example 110, (R)—N-(1-cyclopropylethyl)-2-(3,5-difluorobenzyl)quinazolin-4-amine] | 5 to 20 µM | 5 to 30 µM | 
C[C@@H](Nc1nc(Nc2ccc(F)c(Cl)c2)nc2c(NCCN(C)C)cccc12)C1CC1 [Example 67, (R)—N^2-(3-chloro-4-fluorophenyl)-N^4-(1-cyclopropylethyl)-N8-(2-(dimethylamino)ethyl)quinazoline-2,4,8-triamine] |  | 5 to 30 µM | > 5 µM
Clc1cc(Cl)cc(Nc2nc(NCc3cccs3)c3ccccc3n2)c1 [Example 9, N^2-(3,5-dichlorophenyl)-N^4-(thiophen-2-ylmethyl)quinazoline-2,4-diamine] |  | < 1 µM | > 5 µM
C[C@@H](Nc1nc(NCC2CCCCC2)nc2c(C3=CCN(C)CC3)cccc12)C1CC1 [Example 121, (R)—N^2-(cyclohexylmethyl)-N^4-(1-cyclopropylethyl)-8-(1-methyl-1,2,3,6-tetrahydropyridin-4-yl)quinazoline-2,4-diamine] |  | 1 to 5 µM | 1 to 5 µM
C[C@@H](Nc1nc(NCC2CCCCCC2)nc2c(C3=CCNCC3)cccc12)C1CC1 [Example 103, (R)—N^2-(cycloheptylmethyl)-N^4-(1-cyclopropylethyl)-8-(1,2,3,6-tetrahydropyridin-4-yl)quinazoline-2,4-diamine] |  | 5 to 30 µM | > 5 µM
C[C@@H](Nc1nc(NCc2cccc(Cl)c2F)nc2c(CCN)cccc12)c1cccs1 [Example 94, (R)-8-(2-aminoethyl)-N^2-(3-chloro-2-fluorobenzyl)-N^4-(1-(thiophen-2-yl)ethyl)quinazoline-2,4-diamine] |  | 1 to 5 µM | 1 to 5 µM
C[C@@H](Nc1nc(NCc2cccc(Cl)c2F)nc2c(CN)cccc12)C(C)(C)C [Example 87, (R)-8-(aminomethyl)-N^2-(3-chloro-2-fluorobenzyl)-N^4-(3,3-dimethylbutan-2-yl)quinazoline-2,4-diamine] |  | 5 to 30 µM | > 5 µM
C[C@@H](Nc1nc(Nc2ccc(F)c(Cl)c2)nc2c(NCCN)cccc12)C1CC1 [Example 65, (R)—N^8-(2-aminoethyl)-N^2-(3-chloro-4-fluorophenyl)-N^4-(1-cyclopropylethyl)quinazoline-2,4,8-triamine] |  | 5 to 30 µM | > 5 µM
C[C@@H](Nc1nc(NCCc2c[nH]cn2)nc2c(C3=CCNCC3)cccc12)C1CC1 [Example 63, (R)—N^2-(2-(1H-imidazol-4-yl)ethyl)-N^4-(1-cyclopropylethyl)-8-(1,2,3,6-tetrahydropyridin-4-yl)quinazoline-2,4-diamine] |  | > 30 µM | > 5 µM
C=CC[C@@H](Nc1nc(NCC2CCCCC2)nc2c(C3=CCNCC3)cccc12)C1CC1 [Example 117, (R)—N^2-(cyclohexylmethyl)-N^4-(1-cyclopropylbut-3-en-1-yl)-8-(1,2,3,6-tetrahydropyridin-4-yl)quinazoline-2,4-diamine] |  | 1 to 5 µM | < 1 µM
C[C@@H](Nc1nc(Nc2ccc(F)c(Cl)c2)nc2c(C3=CCOCC3)cccc12)C1CC1 [Example 122, (R)—N^2-(3-chloro-4-fluorophenyl)-N^4-(1-cyclopropylethyl)-8-(3,6-dihydro-2H-pyran-4-yl)quinazoline-2,4-diamine] |  | > 30 µM | > 5 µM
C[C@@H](Nc1nc(NCC2CCCC2)nc2c(C3=CCNCC3)cccc12)C1CC1 [Example 105, (R)—N^2-(cyclopentylmethyl)-N^4-(1-cyclopropylethyl)-8-(1,2,3,6-tetrahydropyridin-4-yl)quinazoline-2,4-diamine] |  | 1 to 5 µM | 1 to 5 µM
CC[C@@H](Nc1nc(Nc2cc(F)cc(F)c2)nc2ccccc12)C1CC1 [Example 35, (R)—N^4-(1-cyclopropylpropyl)-N^2-(3,5-difluorophenyl)quinazoline-2,4-diamine] |  | 1 to 5 µM | > 5 µM
C[C@@H](Nc1nc(Nc2ccc(F)c(Cl)c2)nc2c(CCN)cccc12)c1cccs1 [Example 91, (R)-8-(2-aminoethyl)-N^2-(3-chloro-4-fluorophenyl)-N^4-(1-(thiophen-2-yl)ethyl)quinazoline-2,4-diamine] |  | 5 to 30 µM | 1 to 5 µM
C[C@@H](Nc1nc(Nc2ccc(F)c(Cl)c2)nc2c(CN)cccc12)C1CC1 [Example 56, (R)-8-(aminomethyl)-N^2-(3-chloro-4-fluorophenyl)-N^4-(1-cyclopropylethyl)quinazoline-2,4-diamine] |  | 1 to 5 µM | > 5 µM
C[C@@H](Nc1nc(NCC2CCCCC2)nc2c(C3=CCNCC3)cccc12)C(C)(C)C [Example 81, (R)—N^2-(cyclohexylmethyl)-N^4-(3,3-dimethylbutan-2-yl)-8-(1,2,3,6-tetrahydropyridin-4-yl)quinazoline-2,4-diamine] |  | 1 to 5 µM | > 5 µM
C[C@@H](Nc1nc(Nc2ccc(F)c(Cl)c2)nc2c(C#N)cccc12)C1CC1 [Example 55, (R)-2-((3-chloro-4-fluorophenyl)amino)-4-((1-cycloprprpylethyl)amino)quinazoline-8-carbonitrile] |  | > 30 µM | > 5 µM
Cc1cc(F)cc(Nc2nc(N[C@H](C)c3cccs3)c3cccc(C4=CCNCC4)c3n2)c1 [Example 89, (R)—N^2-(3-fluoro-5-methylphenyl)-8-(1,2,3,6-tetrahydropyridin-4-yl)-N^4-(1-(thiophen-2-yl)ethyl)quinazoline-2,4-diamine] |  | 1 to 5 µM | 1 to 5 µM
COc1cccc(CNc2nc(N[C@H](C)C3CC3)c3ccccc3n2)c1 [Example 27, (R)—N^4-(1-cyclopropylethyl)-N^2-(3-methoxybenzyl)quinazoline-2,4-diamine] |  | 5 to 30 µM | > 5 µM
Clc1ccc(Nc2nc(NCc3ccco3)c3ccccc3n2)cc1Cl [Example 32, N^2-(3,4-dichlorophenyl)-N^4-(furan-2-ylmethyl)quinazoline-2,4-diamine] |  | 1 to 5 µM | > 5 µM
